In patent publication US20110183978A1, “Phenylpyri(mi)dinylazoles” (Bayer CropScience AG, priority 2009, published 2011):

Columns and labels:
Pyricularia grisea = format: in vivo; conditions: 500 ppm; rice plants sprayed 24 hours before inoculation; scored after 6 days
Rhynchosporium secalis = test: Example S: in vivo test on Rhynchosporium secalis (leaf scald in barley/protective); conditions: 336 h, barley, protective, 1000 ppm active substance, assessed 14 days after inoculation, read-out: % Wirkungsgrad (activity level)
Description: Solvent: 49 parts by weight N,N-dimethylacetamide Emulsifier: 1 part by weight alkylaryl polyglycol ethers For the preparation of a suitable active substance preparation, 1 part by weight of active substance is mixed with the stated quantities of solvent and emulsifier and the concentrate is diluted to the desired concentration with water. For the testing for protective activity, young plants are sprayed with the active substance preparation at the stated application dosage. After drying of the spray coating, the plants are sprayed with spores with a spore suspension of Rhynchosporium secalis. […] 14 days after the inoculation, the assessment takes place.

Alternaria solani = test: Example M: in vivo test on Alternaria solani (leaf blotch disease/tomato/protective); conditions: 168 h, tomato, protective, 500 ppm active substance, assessed 7 days after inoculation, read-out: % Wirkungsgrad (activity level)
Procedure, shortened: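 Protective test: young tomato plants sprayed with active substance (in DMF with alkylaryl polyglycol ether emulsifier, diluted in water) at the stated dosage, then inoculated with Alternaria solani. Disease assessed 7 days after inoculation.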

| Structure (SMILES) | % Activity level (Pyricularia grisea) [%] | pest or weed control at 1000 ppm (Rhynchosporium secalis) [%] | pest or weed control at 500 ppm (Alternaria solani) [%] |
| --- | --- | --- | --- |
| CC(C)Cn1cc(-c2ccncc2)c(-c2ccc(F)cc2)n1 [Compound 1] | 82 |  |  |
| CC(C)C(=O)Nc1cc(-c2cn(C(C)C)nc2-c2ccc(F)cc2)ccn1 [Compound 84] |  | 90 | 95 |
| CCC(=O)Nc1cc(-c2cn(C(C)C)nc2-c2ccc(F)cc2)ccn1 [Compound 85] |  |  | 100 |
| CC(C)n1cc(-c2ccnc(NC(=O)C3CC3)c2)c(-c2ccc(F)cc2)n1 [Compound 86] |  | 86 |  |
